What was measured:
lambsquarters = assay: Test Example 5: herbicidal effect by foliage application, plastic box (Table 20, symbol O); assay type: in vivo, lambsquarters (Chenopodium album); details: foliage application, 320 g/ha
In short: (§1)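 Foliar spray test: emulsion formulation diluted in water to a set application rate, sprayed onto 14-day-old plants raised in diluvial soil at 25° C to 30° C under glass. Both herbicidal effect and crop effect rated visually three weeks later.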

Japanese bulrush [1] = assay: Test Example 2: herbicidal activity, application during weed generation under submerged conditions (Table 17, symbol B); assay type: in vivo, Japanese bulrush (Schoenoplectus juncoides); details: AAH 320 g/ha; application during weed generation, submerged conditions
In short: (§2)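 Herbicide emulsion, diluted with water to the chosen amount, is applied onto 4 cm floodwater over alluvial soil where the weeds were co-sown and raised at 25–30° C. Application timing: 1–2 leaves. Assessment: three weeks afterwards.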

chickweed = assay: Test Example 5: herbicidal effect by foliage application, plastic box (Table 20, symbol P); assay type: in vivo, common chickweed (Stellaria media); details: foliage application, 320 g/ha
In short: as §1

barnyard grass [2] = assay: Test Example 3: herbicidal effect by foliage application, Wagner pot (Table 18, symbol H); assay type: in vivo, barnyard grass (Echinochloa crus-galli)
In short: (§3)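 Plants were sown in alluvial soil held under 0.1–0.5 cm standing water and grown 14 days in a greenhouse at 25–30 °C. An emulsifiable formulation, water-diluted to the set dose, was then sprayed onto the foliage, and effects were scored three weeks later using previously defined criteria.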

Italian ryegrass = assay: Test Example 5: herbicidal effect by foliage application, plastic box (Table 20, symbol K); assay type: in vivo, Italian ryegrass (Lolium multiflorum); details: foliage application, 320 g/ha
In short: as §1

windgrass = assay: Test Example 5: herbicidal effect by foliage application, plastic box (Table 20, symbol L); assay type: in vivo, windgrass (Apera spica-venti); details: foliage application, 320 g/ha, evaluated three weeks after application
In short: as §1

wild oat = assay: Test Example 5: herbicidal effect by foliage application, plastic box (Table 20, symbol I); assay type: in vivo, wild oat (Avena fatua); details: foliage application, 320 g/ha
In short: as §1

Chinese sprangletop = assay: Test Example 3: herbicidal effect by foliage application, Wagner pot (Table 18, symbol D); assay type: in vivo, chinese sprangletop (Leptochloa chinensis)
In short: as §3

redroot pigweed = assay: Test Example 5: herbicidal effect by foliage application, plastic box (Table 20, symbol N); assay type: in vivo, redroot pigweed (Amaranthus retroflexus); details: foliage application, 320 g/ha, evaluated three weeks after application
In short: as §1

false cleavers = assay: Test Example 5: herbicidal effect by foliage application, plastic box (Table 20, symbol Q); assay type: in vivo, false cleavers (Galium spurium); details: foliage application, 320 g/ha
In short: as §1

velvetleaf = assay: Test Example 5: herbicidal effect by foliage application, plastic box (Table 20, symbol M); assay type: in vivo, velvetleaf (Abutilon theophrasti); details: foliage application, 320 g/ha
In short: as §1

green foxtail = assay: Test Example 5: herbicidal effect by foliage application, plastic box (Table 20, symbol G); assay type: in vivo, green foxtail (Setaria viridis); details: foliage application, 320 g/ha
In short: as §1

rice flat sedge = assay: Test Example 3: herbicidal effect by foliage application, Wagner pot (Table 18, symbol E); assay type: in vivo, rice flat sedge (Cyperus iria)
In short: as §3

late watergrass [3] = assay: Test Example 2: herbicidal activity, application during weed generation under submerged conditions (Table 17, symbol A); assay type: in vivo, late watergrass (Echinochloa oryzicola); details: AAH 320 g/ha; application during weed generation, submerged conditions
In short: as §2

barnyard grass [4] = assay: Test Example 5: herbicidal effect by foliage application, plastic box (Table 20, symbol H); assay type: in vivo, barnyard grass (Echinochloa crus-galli); details: foliage application, 320 g/ha
In short: as §1

blackgrass = assay: Test Example 5: herbicidal effect by foliage application, plastic box (Table 20, symbol J); assay type: in vivo, blackgrass (Alopecurus myosuroides); details: foliage application, 320 g/ha
In short: as §1

persian speedwell = assay: Test Example 5: herbicidal effect by foliage application, plastic box (Table 20, symbol R); assay type: in vivo, Persian speedwell (Veronica persica); details: foliage application, 320 g/ha
In short: as §1

oval-leafed pondweed [5] = assay: Test Example 2: herbicidal activity, application during weed generation under submerged conditions (Table 17, symbol C); assay type: in vivo, oval-leafed pondweed (Monochoria vaginalis); details: AAH 320 g/ha; application during weed generation, submerged conditions
In short: as §2

southern crabgrass = assay: Test Example 5: herbicidal effect by foliage application, plastic box (Table 20, symbol F); assay type: in vivo, southern crabgrass (Digitaria ciliaris); details: foliage application, 320 g/ha
In short: as §1

late watergrass [6] = assay: Test Example 1: herbicidal activity, application before weed generation under submerged conditions (Table 16, symbol A); assay type: in vivo, late watergrass (Echinochloa oryzicola); details: amount of applied herbicide 320 g/ha
In short: (§4)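 Emulsion formulation, water-diluted to set dose, was put onto the flooded surface (4 cm depth, alluvial soil) the same day weeds were sown and 2.5-leaf rice transplanted. After 3 weeks at 25-30 °C under glass, each species was rated 0 (≤5% kill) to 5 (≥90% kill).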

Japanese bulrush [7] = assay: Test Example 1: herbicidal activity, application before weed generation under submerged conditions (Table 16, symbol B); assay type: in vivo, Japanese bulrush (Schoenoplectus juncoides); details: amount of applied herbicide 320 g/ha
In short: as §4

oval-leafed pondweed [8] = assay: Test Example 1: herbicidal activity, application before weed generation under submerged conditions (Table 16, symbol C); assay type: in vivo, oval-leafed pondweed (Monochoria vaginalis); details: amount of applied herbicide 320 g/ha
In short: as §4

[9] = evaluated three weeks after application
[10] = amount of applied herbicide 320 g/ha

CCCC(=O)Oc1c(C)nn(C)c(=O)c1-c1c(-c2c(OC)cccc2OC)sc2ccc(Cl)cc12 [2-122]
herbicidal effect on O: lambsquarters (lambsquarters; [9]): 0 (Herbicidal rate of 5% or less (almost no effect)) | herbicidal effect rating, B: Japanese bulrush (Japanese bulrush [1]): 0 (Herbicidal rate of 5% or less (almost no effect)) | herbicidal effect on P: chickweed (chickweed; [9]): 3 (Herbicidal rate of 40% or more and less than 70%) | herbicidal effect on H: barnyard grass (barnyard grass [2]; [10]): 2 (Herbicidal rate of 20% or more and less than 40%) | herbicidal effect on K: Italian ryegrass (Italian ryegrass; [9]): 0 (Herbicidal rate of 5% or less (almost no effect)) | herbicidal effect on L: windgrass (windgrass): 0 (Herbicidal rate of 5% or less (almost no effect)) | herbicidal effect on I: wild oat (wild oat; [9]): 0 (Herbicidal rate of 5% or less (almost no effect)) | herbicidal effect on D: Chinese sprangletop (Chinese sprangletop; [10]): 0 (Herbicidal rate of 5% or less (almost no effect)) | herbicidal effect on N: redroot pigweed (redroot pigweed): 0 (Herbicidal rate of 5% or less (almost no effect)) | herbicidal effect on Q: false cleavers (false cleavers; [9]): 0 (Herbicidal rate of 5% or less (almost no effect)) | herbicidal effect on M: velvetleaf (velvetleaf; [9]): 0 (Herbicidal rate of 5% or less (almost no effect)) | herbicidal effect on G: green foxtail (green foxtail; [9]): 0 (Herbicidal rate of 5% or less (almost no effect)) | herbicidal effect on E: rice flat sedge (rice flat sedge; [10]): 0 (Herbicidal rate of 5% or less (almost no effect)) | herbicidal effect rating, A: late watergrass (late watergrass [3]): 0 (Herbicidal rate of 5% or less (almost no effect)) | herbicidal effect on H: barnyard grass (barnyard grass [4]; [9]): 0 (Herbicidal rate of 5% or less (almost no effect)) | herbicidal effect on J: blackgrass (blackgrass; [9]): 0 (Herbicidal rate of 5% or less (almost no effect)) | herbicidal effect on R: persian speedwell (persian speedwell; [9]): 1 (Herbicidal rate of 5% or more and less than 20%) | herbicidal effect rating, C: oval-leafed pondweed (oval-leafed pondweed [5]): 2 (Herbicidal rate of 20% or more and less than 40%) | herbicidal effect on F: southern crabgrass (southern crabgrass; [9]): 0 (Herbicidal rate of 5% or less (almost no effect))

CCCC(=O)Oc1c(C)nn(C)c(=O)c1-c1c(-c2ccc(F)cc2OC)sc2cc(C)ccc12 [3-056]
O: lambsquarters, herbicidal effect grade (lambsquarters; three weeks after application): 2 (Herbicidal rate of 20% or more and less than 40%) | herbicidal effect rating, B: Japanese bulrush (Japanese bulrush [1]): 0 (Herbicidal rate of 5% or less (almost no effect)) | P: chickweed, herbicidal effect grade (chickweed; three weeks after application): 5 (Herbicidal rate of 90% or more (almost completely withered)) | herbicidal effect on barnyard grass (H) (barnyard grass [2]; 320 g/ha): 3 (Herbicidal rate of 40% or more and less than 70%) | K: Italian ryegrass, herbicidal effect grade (Italian ryegrass; three weeks after application): 3 (Herbicidal rate of 40% or more and less than 70%) | I: wild oat, herbicidal effect grade (wild oat; three weeks after application): 3 (Herbicidal rate of 40% or more and less than 70%) | herbicidal effect on Chinese sprangletop (D) (Chinese sprangletop; 320 g/ha): 1 (Herbicidal rate of 5% or more and less than 20%) | Q: false cleavers, herbicidal effect grade (false cleavers; three weeks after application): 4 (Herbicidal rate of 70% or more and less than 90%) | M: velvetleaf, herbicidal effect grade (velvetleaf; three weeks after application): 2 (Herbicidal rate of 20% or more and less than 40%) | G: green foxtail, herbicidal effect grade (green foxtail; three weeks after application): 4 (Herbicidal rate of 70% or more and less than 90%) | Herbicidal effect, A: late watergrass (late watergrass [6]): 3 (Herbicidal rate of 40% or more and less than 70%) | herbicidal effect on rice flat sedge (E) (rice flat sedge; 320 g/ha): 3 (Herbicidal rate of 40% or more and less than 70%) | herbicidal effect rating, A: late watergrass (late watergrass [3]): 2 (Herbicidal rate of 20% or more and less than 40%) | H: barnyard grass, herbicidal effect grade (barnyard grass [4]; three weeks after application): 3 (Herbicidal rate of 40% or more and less than 70%) | Herbicidal effect, B: Japanese bulrush (Japanese bulrush [7]): 0 (Herbicidal rate of 5% or less (almost no effect)) | J: blackgrass, herbicidal effect grade (blackgrass; three weeks after application): 2 (Herbicidal rate of 20% or more and less than 40%) | R: persian speedwell, herbicidal effect grade (persian speedwell; three weeks after application): 5 (Herbicidal rate of 90% or more (almost completely withered)) | Herbicidal effect, C: oval-leafed pondweed (oval-leafed pondweed [8]): 0 (Herbicidal rate of 5% or less (almost no effect)) | herbicidal effect rating, C: oval-leafed pondweed (oval-leafed pondweed [5]): 0 (Herbicidal rate of 5% or less (almost no effect)) | F: southern crabgrass, herbicidal effect grade (southern crabgrass; three weeks after application): 3 (Herbicidal rate of 40% or more and less than 70%)
